Reference: ChEMBL document CHEMBL4842368, “Berotralstat (BCX7353): Structure-Guided Design of a Potent, Selective, and Oral Plasma Kallikrein Inhibitor to Prevent Attacks of Hereditary Angioedema (HAE)” (J Med Chem, 2021)

Legend:
[1] = biological target: T1, Plasma kallikrein (Homo sapiens, UniProt P03952); assay: Inhibition of purified human plasma kallikrein using H-D-Pro-Phe-Arg-pNA.2HCl as substrate measured after 3 mins by microplate reader analysis
[2] = AUC in rat at 5 mg/kg, po after 12 hrs; format: ADME, organism-based; parameters: route oral, time 12 hrs, dose 5 mg/kg; details: in vivo
[3] = biological target: T1, Plasma kallikrein; assay: Inhibition of endogenous human plasma kallikrein using Z-Phe-Arg-AMC.HCl as substrate measured after 5 mins by microplate reader analysis
[4] = Cmax in rat at 5 mg/kg, po; format: ADME, organism-based; parameters: route oral, dose 5 mg/kg; details: in vivo

T1 sequence (P03952 20-390 limits assumed): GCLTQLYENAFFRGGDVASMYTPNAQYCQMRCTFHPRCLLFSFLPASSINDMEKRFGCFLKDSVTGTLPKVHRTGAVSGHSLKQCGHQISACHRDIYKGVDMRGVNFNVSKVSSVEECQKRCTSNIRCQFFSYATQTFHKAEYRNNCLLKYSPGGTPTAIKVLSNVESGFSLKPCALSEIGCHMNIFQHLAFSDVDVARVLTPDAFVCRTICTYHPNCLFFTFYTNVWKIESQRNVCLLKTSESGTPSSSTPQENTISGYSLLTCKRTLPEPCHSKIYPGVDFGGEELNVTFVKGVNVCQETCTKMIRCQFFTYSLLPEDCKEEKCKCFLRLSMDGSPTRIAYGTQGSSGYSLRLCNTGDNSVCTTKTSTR
T1 sequence (P03952 391-638 limits assumed): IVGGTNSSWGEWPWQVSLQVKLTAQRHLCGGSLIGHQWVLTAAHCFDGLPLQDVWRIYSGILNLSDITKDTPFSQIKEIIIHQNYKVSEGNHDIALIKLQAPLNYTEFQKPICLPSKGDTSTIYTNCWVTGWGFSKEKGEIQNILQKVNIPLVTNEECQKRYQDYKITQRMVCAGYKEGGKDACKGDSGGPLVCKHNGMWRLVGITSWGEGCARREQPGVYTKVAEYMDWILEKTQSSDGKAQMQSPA

Compound | IC50 [1] | AUC at 12 h [2] | IC50 [3] | Cmax [4]
NCc1cccc(-n2cccn2)c1 | 3400 µM |  |  | 
NCc1cccc(-n2nc(C(F)(F)F)cc2C(=O)Nc2ccc(-c3ccccc3)cc2F)c1 | 1.02 µM |  |  | 
NCc1cccc(-n2nc(C(F)(F)F)cc2C(=O)Nc2ccc(-c3ccccc3)cc2)c1 | 2.9 µM |  |  | 
NCc1cccc(-n2nc(C(F)(F)F)cc2C(=O)Nc2ccc(-c3ccc(S(N)(=O)=O)cc3)cc2F)c1 | 0.395 µM |  |  | 
NCc1cccc(-n2nc(C(F)(F)F)cc2C(=O)Nc2ccccc2)c1 | 22.6 µM |  |  | 
NCc1cccc(-n2nc(C(F)(F)F)cc2C(=O)Nc2ccccc2F)c1 | 27.3 µM |  |  | 
NCc1cccc(-n2nc(C(F)(F)F)cc2C(=O)Nc2cccc(C(OCC3CC3)c3ccccc3)c2)c1 (centres undefined) | 0.0376 µM |  | 300 nM | 
NCc1cccc(-n2nc(C(F)(F)F)cc2C(=O)Nc2cccc(C(O)c3ccccc3)c2F)c1 (centres undefined) | 0.149 µM |  |  | 

Now from value to compound:

IC50 [1] | AUC at 12 h [2] | IC50 [3] | Cmax [4] | Compound
0.0104 µM | 131 ng·h/mL | 26.7 nM | 45 ng/mL | NCc1cccc(-n2nc(C(F)(F)F)cc2C(=O)Nc2cc(C(NCC3CC3)c3ccccn3)ccc2F)c1 (centres undefined)
0.0052 µM | 73 ng·h/mL | 16.7 nM | 22 ng/mL | NCc1cccc(-n2nc(C(F)(F)F)cc2C(=O)Nc2cc(C(NCC3CC3)c3ccncc3)ccc2F)c1 (centres undefined)
0.71 µM |  |  |  | NCc1cccc(-n2nc(C(F)(F)F)cc2C(=O)Nc2cc(C(O)c3ccccc3)ccc2F)c1 (centres undefined)
0.231 µM |  |  |  | COC(c1ccccc1)c1ccc(F)c(NC(=O)c2cc(C(F)(F)F)nn2-c2cccc(CN)c2)c1 (centres undefined)
1 µM |  |  |  | NCc1cccc(-n2nc(C(F)(F)F)cc2C(=O)Nc2ccc(C(O)c3ccccc3)cc2F)c1 (centres undefined)
0.708 µM |  | > 1000 nM |  | NCc1cccc(-n2nc(C(F)(F)F)cc2C(=O)Nc2ccc(F)c(C(OCC3CC3)c3ccccc3)c2)c1 (centres undefined)
0.037 µM |  | > 1000 nM |  | NCc1cccc(-n2nc(C(F)(F)F)cc2C(=O)Nc2cccc(C(OCC3CC3)c3ccccc3)c2F)c1 (centres undefined)
